Laboratory results taken from patent US20110130380A1, “Heteroaryl Kinase Inhibitors” (priority 2009, published 2011).

Target: Cdk9/cyclinT1 (Homo sapiens, UniProt P50750)
Assay: Cdk9/cyclinT1 IMAP Protocol (fluorescence polarization kinase assay)
Settings: Cdk9_cyclinT1_IC50, Table V; generated using one of the two Cdk9/cyclinT1 assays (IMAP or Alpha Screen), not stated which; ATP 6 uM

Sequence of Cdk9/cyclinT1 (P50750 whole entry): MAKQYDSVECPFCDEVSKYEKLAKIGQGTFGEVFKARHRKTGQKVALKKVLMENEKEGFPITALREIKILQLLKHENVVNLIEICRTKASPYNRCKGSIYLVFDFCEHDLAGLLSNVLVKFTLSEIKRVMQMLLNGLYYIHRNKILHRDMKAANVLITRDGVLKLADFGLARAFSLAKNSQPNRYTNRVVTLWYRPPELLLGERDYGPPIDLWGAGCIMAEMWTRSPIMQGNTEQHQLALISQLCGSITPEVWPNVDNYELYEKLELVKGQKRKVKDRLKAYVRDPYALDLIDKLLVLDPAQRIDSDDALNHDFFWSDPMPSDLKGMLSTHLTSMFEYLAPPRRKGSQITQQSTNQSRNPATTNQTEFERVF
Sequence of Cdk9/cyclinT1 (O60563 whole entry partner): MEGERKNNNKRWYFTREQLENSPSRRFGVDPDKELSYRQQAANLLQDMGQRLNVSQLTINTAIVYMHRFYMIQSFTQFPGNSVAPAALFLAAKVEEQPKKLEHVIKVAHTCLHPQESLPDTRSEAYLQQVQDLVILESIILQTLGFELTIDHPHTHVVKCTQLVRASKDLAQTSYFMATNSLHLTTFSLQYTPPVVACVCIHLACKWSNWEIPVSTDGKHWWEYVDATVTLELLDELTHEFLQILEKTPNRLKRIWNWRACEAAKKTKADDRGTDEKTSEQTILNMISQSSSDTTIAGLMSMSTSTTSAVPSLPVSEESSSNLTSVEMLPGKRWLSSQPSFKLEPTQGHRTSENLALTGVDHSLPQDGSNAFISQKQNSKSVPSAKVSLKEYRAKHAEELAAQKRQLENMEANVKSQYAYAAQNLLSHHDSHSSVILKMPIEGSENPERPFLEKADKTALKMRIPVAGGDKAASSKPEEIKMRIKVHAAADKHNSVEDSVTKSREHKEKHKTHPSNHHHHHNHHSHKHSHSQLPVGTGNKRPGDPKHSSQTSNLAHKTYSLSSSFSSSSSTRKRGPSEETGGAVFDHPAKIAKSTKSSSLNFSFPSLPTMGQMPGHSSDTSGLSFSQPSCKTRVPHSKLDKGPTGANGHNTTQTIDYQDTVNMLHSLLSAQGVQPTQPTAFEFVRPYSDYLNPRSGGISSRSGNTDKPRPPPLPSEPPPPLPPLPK

Structure (SMILES)	IC50 [nM]
CC1(C)COC[C@H](CNc2cccc(-c3cc(NC(=O)[C@@H]4CCCNC4)ncc3Cl)n2)O1 (single isomer, unassigned) [Example 234]	3
COC[C@@H]1CC[C@H](C(=O)Nc2cc(-c3cccc(NCC4CCOCC4)n3)c(Cl)cn2)CN1 (racemic) [Example 220, (3S,6S)-/(3R,6R)-6-Methoxymethyl-piperidine-3-carboxylic acid {5′-chloro-6-[(tetrahydro-pyran-4-ylmethyl)-amino]-[2,4′]bipyridinyl-2′-yl}-amide]	14
O=C(Nc1cc(-c2nc(NCC3CCOCC3)ccc2F)c(Cl)cn1)[C@@H]1CCCNC1 [Example 157, (R)-Piperidine-3-carboxylic acid {5′-chloro-3-fluoro-6-[(tetrahydro-pyran-4-ylmethyl)-amino]-[2,4′]bipyridinyl-2′-yl}-amide]	1
C[C@@H]1CC[C@@H](C(=O)Nc2cc(-c3cccc(NC[C@H]4CCOC(C)(C)C4)n3)c(Cl)cn2)CN1 (mixture of isomers) [Example 227, (3R,6R)-/(3S,6S)-6-Methyl-piperidine-3-carboxylic acid {5′-chloro-6-[((S)-2,2-dimethyl-tetrahydro-pyran-4-ylmethyl)-amino]-[2,4′]bipyridinyl-2′-yl}-amide]	1
COC[C@@H]1CC[C@@H](C(=O)Nc2cc(-c3cccc(NCC4CCOCC4)n3)c(Cl)cn2)CN1 (single isomer, unassigned) [Example 235]	2
C[C@@H]1CC[C@@H](C(=O)Nc2cc(-c3cccc(NCC4CCOCC4)n3)ccn2)CN1 (racemic) [Example 224, (3R,6R)-/(3S,6S)-6-Methyl-piperidine-3-carboxylic acid {6-[(tetrahydro-pyran-4-ylmethyl)-amino]-[2,4′]bipyridinyl-2′-yl}-amide]	2
CC[C@@H]1CC[C@@H](C(=O)Nc2cc(-c3cccc(NCC4CCOCC4)n3)c(Cl)cn2)CN1 (racemic) [Example 229, (3R,6R)-/(3S,6S)-6-Ethyl-piperidine-3-carboxylic acid {5′-chloro-6-[(tetrahydro-pyran-4-ylmethyl)-amino]-[2,4′]bipyridinyl-2′-yl}-amide]	1
CC1(C)C[C@H](CNc2cccc(-c3cc(NC(=O)[C@H]4CNCCO4)ncc3Cl)n2)CCO1 (single isomer, unassigned) [Example 130]	< 8
O=C(Nc1cc(-c2nc(NCC3CCOCC3)ccc2Cl)c(Cl)cn1)C1CCCCNC1 (stereo not shown) [Example 194, Azepane-3-carboxylic acid {3,5′-dichloro-6-[(tetrahydro-pyran-4-ylmethyl)-amino]-[2,4′]bipyridinyl-2′-yl}-amide]	1
CS(=O)(=O)N1CCC[C@H](C(=O)Nc2cc(-c3cccc(NCC4CCCOC4)n3)c(Cl)cn2)C1 (stereo partly drawn) [Example 81, (S)-1-Methanesulfonyl-piperidine-3-carboxylic acid {5′-chloro-6-[(tetrahydro-pyran-3-ylmethyl)-amino]-[2,4′]bipyridinyl-2′-yl}-amide]	< 8
O=C(Nc1cc(-c2cccc(NCC3CCOCC3)n2)c(Cl)cn1)C1CCCC1 [Example 65, Cyclopentanecarboxylic acid {5′-chloro-6-[(tetrahydro-pyran-4-ylmethyl)-amino]-[2,4′]bipyridinyl-2′-yl}-amide]	< 8
CC(C)O[C@H]1CNC[C@@H]1C(=O)Nc1cc(-c2cccc(NCC3(C)CCOCC3)n2)c(Cl)cn1 [Example 249, (3S,4R)-4-Isopropoxy-pyrrolidine-3-carboxylic acid {5′-chloro-6-[(4-methyl-tetrahydro-pyran-4-ylmethyl)-amino]-[2,4′]bipyridinyl-2′-yl}-amide]	9
O=C(Nc1cc(-c2cccc(N3CCC(O)CC3)n2)c(Cl)cn1)[C@@H]1CCCNC1 [Example 43, (R)-Piperidine-3-carboxylic acid (5″- chloro-4-hydroxy-3,4,5,6-tetrahydro-2H-[1,2′;6′,4″]terpyridin-2″- yl)-amide]	57
CO[C@@H]1CNC[C@H](C(=O)Nc2cc(-c3cccc(NCC4CCOCC4)n3)c(Cl)cn2)C1 (single isomer, unassigned) [Example 211]	2
O=C(Nc1cc(-c2cccc(NCc3ccccc3)n2)c(Cl)cn1)[C@@H]1CCCNC1 [Example 39, (R)-Piperidine-3-carboxylic acid (6-benzylamino-5′-chloro-[2,4′]bipyridinyl-2′-yl)-amide]	< 8
[2H]C([2H])(Nc1cccc(-c2cc(NC(=O)[C@H]3CNCCO3)ncc2Cl)n1)C1CCOCC1 [Example 180, (R)-Morpholine-2-carboxylic acid {5′-chloro-6-[(tetrahydro-pyran-4-yl(dideuteromethyl))-amino]-[2,4′]bipyridinyl-2′-yl}-amide]	20
O=C(Nc1cc(-c2cccc(NCC3CCOCC3)n2)c(Cl)cn1)C1CNCCO1 (stereo not shown) [Example 13, Morpholine-2-carboxylic acid {5′-chloro-6-[(tetrahydro-pyran-4-ylmethyl)-amino]-[2,4′]bipyridinyl-2′-yl}-amide]	16

Structure (SMILES)	IC50 [nM]
O=C(Nc1cc(-c2cccc(NCC3CCOCC3)n2)c(Cl)cn1)C1CNCCOC1 (stereo not shown) [Example 187, [1,4]Oxazepane-6-carboxylic acid {5′-chloro-6-[(tetrahydro-pyran-4-ylmethyl)-amino]-[2,4′]bipyridinyl-2′-yl}-amide]	3
CC1(C)C[C@@H](CNc2nc(-c3cc(NC(=O)[C@@H]4CCCNC4)ncc3Cl)ccc2F)CCO1 (single isomer, unassigned) [Example 216]	1
O=C(Nc1cc(-c2cccc(NCC3CCOCC3)n2)c(Cl)cn1)[C@H]1CCCN1 [Example 57, (R)-Pyrrolidine-2-carboxylic acid {5′-chloro-6-[(tetrahydro-pyran-4-ylmethyl)-amino]-[2,4′]bipyridinyl-2′-yl}-amide]	81
COCCN1CCC[C@@H](C(=O)Nc2cc(-c3cccc(NCC4CCOCC4)n3)c(Cl)cn2)C1 [Example 16, (R)-1-(2-Methoxy-ethyl)-piperidine-3-carboxylic acid {5′-chloro-6-[(tetrahydro-pyran-4-ylmethyl)-amino]-[2,4′]bipyridinyl-2′-yl}-amide]	855
CC(C)S(=O)(=O)N1CCC[C@H](C(=O)Nc2cc(-c3nc(NC[C@H]4CCOC(C)(C)C4)ccc3Cl)c(Cl)cn2)C1 (single isomer, unassigned) [Example 173]	1
O=C(Nc1cc(-c2cccc(NCC3CCOCC3)n2)c(Cl)cn1)[C@H]1CCCN(S(=O)(=O)C2CC2)C1 [Example 93, (S)-1-Cyclopropanesulfonyl-piperidine-3-carboxylic acid {5′-chloro-6-[(tetrahydro-pyran-4-ylmethyl)-amino]-[2,4′]bipyridinyl-2′-yl}-amide]	< 8
O=C(Nc1cc(-c2cccc(NCC3CCOCC3)n2)c(Cl)cn1)[C@@H]1CN[C@H](CF)C1 [Example 178, (3S,5S)-5-Fluoromethyl-pyrrolidine-3-carboxylic acid {5′-chloro-6-[(tetrahydro-pyran-4-ylmethyl)-amino]-[2,4′]bipyridinyl-2′-yl}-amide]	1
O=C(Nc1cc(-c2cccc(NCC3CCCCCC3)n2)c(Cl)cn1)[C@@H]1CCCNC1 [Example 19, (R)-Piperidine-3-carboxylic acid [5′-chloro-6-(cycloheptylmethyl-amino)-[2,4′]bipyridinyl-2′-yl]-amide]	< 8
O=C(Nc1cc(-c2ccc(F)c(NCC3CCOCC3)n2)c(Cl)cn1)[C@H]1CNCCO1 [Example 205, (R)-Morpholine-2-carboxylic acid {5′-chloro-5-fluoro-6-[(tetrahydro-pyran-4-ylmethyl)-amino]-[2,4′]bipyridinyl-2′-yl}-amide]	5
O=C(Nc1cc(-c2ccc(F)c(NCC3CCOCC3)n2)c(Cl)cn1)[C@@H]1CCNC1 [Example 143, (R)-Pyrrolidine-3-carboxylic acid {5′-chloro-5-fluoro-6-[(tetrahydro-pyran-4-ylmethyl)-amino]-[2,4′]bipyridinyl-2′-yl}-amide]	1
C[C@@H]1CNC[C@H](C(=O)Nc2cc(-c3cccc(NCC4CCOCC4)n3)c(Cl)cn2)C1 (racemic) [Example 125, (3R,5S)-/(3S,5R)-5-Methyl-piperidine-3-carboxylic acid {5′-chloro-6-[(tetrahydro-pyran-4-ylmethyl)-amino]-[2,4′]bipyridinyl-2′-yl}-amide]	9
CC1(C)C[C@@H](CNc2cccc(-c3cc(NC(=O)[C@H]4CNCCO4)ncc3Cl)n2)CCO1 (single isomer, unassigned) [Example 131]	38
O=C(Nc1cc(-c2cccc(NCC3CCOCC3)n2)c(Cl)cn1)[C@H]1CCCNC1 [Example 8, (S)-Piperidine-3-carboxylic acid {5′-chloro-6-[(tetrahydro-pyran-4-ylmethyl)-amino]-[2,4′]bipyridinyl-2′-yl}-amide]	46
O=C(Nc1cc(-c2cccc(NCC3CCOCC3)n2)c(Cl)cn1)[C@H]1CNC[C@H]1F [Example 85, (3R,4S)-4-Fluoro-pyrrolidine-3-carboxylic acid {5′-chloro-6-[(tetrahydro-pyran-4-ylmethyl)-amino]-[2,4′]bipyridinyl-2′-yl}-amide]	16
CC1(C)C[C@H](CNc2cccc(-c3cc(NC(=O)[C@@H]4CCNC4)ncc3Cl)n2)CCO1 [Example 259, (R)-Pyrrolidine-3-carboxylic acid {5′-chloro-6-[((R)-2,2-dimethyl-tetrahydro-pyran-4-ylmethyl)-amino]-[2,4′]bipyridinyl-2′-yl}-amide]	1
O=C(Nc1cc(-c2cccc(NCc3cccnc3)n2)c(Cl)cn1)[C@@H]1CCCNC1 [Example 40, (R)-Piperidine-3-carboxylic acid {5′-chloro-6-[(pyridin-3-ylmethyl)-amino]-[2,4′]bipyridinyl-2′-yl}-amide]	< 8

Same assay, conditions: Cdk9_cyclinT1_IC50, generated using one of the two Cdk9/cyclinT1 assays (IMAP or Alpha Screen), not specified per value; ATP 6 uM

Structure (SMILES)	IC50 [nM]
O=C(Nc1cc(-c2cc(NCC3CCOCC3)cnc2Cl)c(Cl)cn1)C1CNCCOC1 (stereo not shown) [Example 316, [l,4]Oxazepane-6-carboxylic acid {2,5′-dichloro-5-[(tetrahydro-pyran-4-ylmethyl)-amino]-[3,4′]bipyridinyl-2′-yl}-amide]	6
